Data from patent US10149839B2, “Chemical compounds” (AstraZeneca AB, priority 2016, dated 2018).
Values after ≈ are worked out from the molar mass of the structure shown.

How the values were obtained:
[1] = physchem; conditions: 1-octanol/aqueous buffer, pH 7.4
[2] = target: Estrogen Receptor (ERα) in MCF-7 cells (Homo sapiens (Human), UniProt P03372); assay: MCF-7 ER down-regulation assay (immuno-fluorescence); format: cell-based; conditions: for % downregulation: shown in brackets where not >90%
Sequence of Estrogen Receptor (ERα) in MCF-7 cells (P03372 whole entry): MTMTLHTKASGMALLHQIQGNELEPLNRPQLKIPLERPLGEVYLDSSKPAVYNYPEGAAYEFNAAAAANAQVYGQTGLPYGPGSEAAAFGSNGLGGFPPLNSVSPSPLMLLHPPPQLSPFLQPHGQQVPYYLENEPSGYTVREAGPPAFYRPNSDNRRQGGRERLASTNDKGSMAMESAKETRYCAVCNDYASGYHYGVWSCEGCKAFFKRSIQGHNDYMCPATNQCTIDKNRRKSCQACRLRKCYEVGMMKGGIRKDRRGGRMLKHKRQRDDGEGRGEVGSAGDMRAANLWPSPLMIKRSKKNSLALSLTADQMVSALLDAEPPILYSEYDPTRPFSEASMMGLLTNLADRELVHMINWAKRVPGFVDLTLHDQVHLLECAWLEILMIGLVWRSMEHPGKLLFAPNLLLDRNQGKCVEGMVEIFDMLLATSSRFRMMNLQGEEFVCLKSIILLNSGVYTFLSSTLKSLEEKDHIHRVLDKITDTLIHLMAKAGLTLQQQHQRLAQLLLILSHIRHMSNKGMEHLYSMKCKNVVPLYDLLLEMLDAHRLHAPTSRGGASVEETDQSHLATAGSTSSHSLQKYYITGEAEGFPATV

[3] = Thermodynamic solubility (shake flask); format: physicochemical; conditions: aqueous phosphate buffer, 25 °C, pH 7.4, aqueous buffer, thermodynamic from solid, aqueous phosphate buffer pH 7.4, 24 hours
[4] = Human plasma protein binding (equilibrium dialysis); format: in vitro ADME; conditions: dialysis 18 hours

Row | SMILES | logD [1] | IC50 ([2]; 18-22 hours incubation) | % downregulation [2] | solubility at 24 h [3] | Human plasma protein binding (% free) [4] | DC50 ([2]; 18-22 hours incubation, read-out: ER down regulation IC50 value)
1 | C[C@H](COc1ccc([C@@H]2c3[nH]c4ccccc4c3C[C@@H](C)N2CC2(F)COC2)cc1)NCCCF [Example 28, 3-fluoro-N-((R)-1-(4-((1R,3R)-2-((3-fluorooxetan-3-yl)methyl)-3-methyl-2,3,4,9-tetrahydro-1H-pyrido[3,4-b]indol-1-yl)phenoxy)propan-2-yl)propan-1-amine] | 2.9 | 11 nM | (48%) | 354 µM (≈ 171 µg/mL) | 2.7 % free | –
2 | C[C@@H]1Cc2c([nH]c3ccccc23)[C@@H](c2ccc(OCCNCCCF)nc2)N1CC1(F)COC1 [Example 34, 3-fluoro-N-(2-((5-((1R,3R)-2-((3-fluorooxetan-3-yl)methyl)-3-methyl-2,3,4,9-tetrahydro-1H-pyrido[3,4-b]indol-1-yl)pyridin-2-yl)oxy)ethyl)propan-1-amine] | 2.5 | 6.2 nM | – | 787 µM (≈ 370 µg/mL) | 11 % free | –
3 | C[C@@H]1Cc2c([nH]c3ccccc23)[C@@H](c2ncc(OCCNCCCF)cn2)N1CC(C)(C)F [Example 39, 3-fluoro-N-(2-((2-((1S,3R)-2-(2-fluoro-2-methylpropyl)-3-methyl-2,3,4,9-tetrahydro-1H-pyrido[3,4-b]indol-1-yl)pyrimidin-5-yl)oxy)ethyl)propan-1-amine] | 2.5 | 230 nM | – | 328 µM (≈ 150 µg/mL) | 7.2 % free | –
4 | C[C@@H]1Cc2c([nH]c3ccccc23)[C@@H](c2ccc(OCCNCCCF)cc2)N1CC(C)(F)F [Example 57, N-(2-(4-((1R,3R)-2-(2,2-difluoropropyl)-3-methyl-2,3,4,9-tetrahydro-1H-pyrido[3,4-b]indol-1-yl)phenoxy)ethyl)-3-fluoropropan-1-amine] | 4 | 0.27 nM | – | 35 µM (≈ 16.1 µg/mL) | 0.41 % free | –
5 | Cc1cc(OCCNCCCF)ncc1[C@@H]1c2[nH]c3ccccc3c2C[C@@H](C)N1CC(F)F [Example 63, N-(2-((5-((1R,3R)-2-(2,2-difluoroethyl)-3-methyl-2,3,4,9-tetrahydro-1H-pyrido[3,4-b]indol-1-yl)-4-methylpyridin-2-yl)oxy)ethyl)-3-fluoropropan-1-amine] | > 3.6 | 1.8 nM | – | 268 µM (≈ 123 µg/mL) | 1.4 % free | –
6 | C[C@@H]1Cc2c([nH]c3ccccc23)[C@@H](c2cnc(OCCNCCCF)cn2)N1CC(F)(F)CO [Example 69, 2,2-difluoro-3-((1S,3R)-1-(5-(2-((3-fluoropropyl)amino)ethoxy)pyrazin-2-yl)-3-methyl-1,3,4,9-tetrahydro-2H-pyrido[3,4-b]indol-2-yl)propan-1-ol] | 2 | 0.54 nM | – | 820 µM (≈ 392 µg/mL) | 15 % free | –
7 | C[C@@H]1Cc2c([nH]c3ccccc23)[C@@H](c2cnc(OCCNCCCF)cn2)N1CC(F)F [Example 70, N-(2-((5-((1S,3R)-2-(2,2-difluoroethyl)-3-methyl-2,3,4,9-tetrahydro-1H-pyrido[3,4-b]indol-1-yl)pyrazin-2-yl)oxy)ethyl)-3-fluoropropan-1-amine] | 2.4 | 0.88 nM | – | 607 µM (≈ 272 µg/mL) | 11 % free | –
8 | C[C@@H]1Cc2c([nH]c3ccccc23)[C@@H](c2cnc(NCCNCCCF)cn2)N1CC(F)F [Example 71, N1-(5-((1S,3R)-2-(2,2-difluoroethyl)-3-methyl-2,3,4,9-tetrahydro-1H-pyrido[3,4-b]indol-1-yl)pyrazin-2-yl)-N2-(3-fluoropropyl)ethane-1,2-diamine] | 2.3 | 0.83 nM | – | > 1000 µM | 13 % free | –
9 | COc1nc(OCCNCCCF)ccc1[C@@H]1c2[nH]c3ccccc3c2C[C@@H](C)N1CC(C)(F)F [Example 77, N-(2-((5-((1R,3R)-2-(2,2-difluoropropyl)-3-methyl-2,3,4,9-tetrahydro-1H-pyrido[3,4-b]indol-1-yl)-6-methoxypyridin-2-yl)oxy)ethyl)-3-fluoropropan-1-amine] | > 3.6 | 0.71 nM | (85%) | 108 µM (≈ 53 µg/mL) | 0.19 % free | –

Results, then the molecule that gave them:

Row | logD [1] | IC50 ([2]; 18-22 hours incubation) | % downregulation [2] | solubility at 24 h [3] | Human plasma protein binding (% free) [4] | DC50 ([2]; 18-22 hours incubation, read-out: ER down regulation IC50 value) | SMILES
10 | 2.7 | 22 nM | (89%) | 554 µM (≈ 252 µg/mL) | 5.3 % free | – | C[C@@H]1Cc2c([nH]c3ccccc23)[C@@H](c2ccc(OCCNCCCF)cn2)N1CC1(F)CC1 [Example 31, 3-fluoro-N-(2-((6-((1S,3R)-2-((1-fluorocyclopropyl)methyl)-3-methyl-2,3,4,9-tetrahydro-1H-pyrido[3,4-b]indol-1-yl)pyridin-3-yl)oxy)ethyl)propan-1-amine]
11 | 2.1 | 41 nM | – | 980 µM (≈ 461 µg/mL) | 16 % free | – | C[C@@H]1Cc2c([nH]c3ccccc23)[C@@H](c2ccc(OCCNCCCF)cn2)N1CC1(F)COC1 [Example 32, 3-fluoro-N-(2-((6-((1S,3R)-2-((3-fluorooxetan-3-yl)methyl)-3-methyl-2,3,4,9-tetrahydro-1H-pyrido[3,4-b]indol-1-yl)pyridin-3-yl)oxy)ethyl)propan-1-amine]
12 | 3 | 3.3 nM | (87%) | 244 µM (≈ 111 µg/mL) | 3.0 % free | – | C[C@@H]1Cc2c([nH]c3ccccc23)[C@@H](c2ccc(OCCNCCCF)nc2)N1CC1(F)CC1 [Example 33, 3-fluoro-N-(2-((5-((1R,3R)-2-((1-fluorocyclopropyl)methyl)-3-methyl-2,3,4,9-tetrahydro-1H-pyrido[3,4-b]indol-1-yl)pyridin-2-yl)oxy)ethyl)propan-1-amine]
13 | 2.4 | 0.51 nM | – | 877 µM (≈ 425 µg/mL) | 8.5 % free | – | COc1cc(OCCNCCCF)ncc1[C@@H]1c2[nH]c3ccccc3c2C[C@@H](C)N1CC1(F)CC1 [Example 37, 3-fluoro-N-(2-((5-((1R,3R)-2-((1-fluorocyclopropyl)methyl)-3-methyl-2,3,4,9-tetrahydro-1H-pyrido[3,4-b]indol-1-yl)-4-methoxypyridin-2-yl)oxy)ethyl)propan-1-amine]
14 | 2.9 | 0.25 nM | – | 853 µM (≈ 430 µg/mL) | 2.8 % free | – | COc1cc(NCCNCCCF)ccc1[C@@H]1c2[nH]c3ccccc3c2C[C@@H](C)N1CC(F)(F)CO [Example 59, 2,2-difluoro-3-((1R,3R)-1-(4-((2-((3-fluoropropyl)amino)ethyl)amino)-2-methoxyphenyl)-3-methyl-1,3,4,9-tetrahydro-2H-pyrido[3,4-b]indol-2-yl)propan-1-ol]
15 | 2.9 | 1.8 nM | – | 760 µM (≈ 367 µg/mL) | 7.8 % free | – | COc1cc(NCCNCCCF)ccc1[C@@H]1c2[nH]c3ccccc3c2C[C@@H](C)N1CC1(F)CC1 [Example 60, N1-(4-((1R,3R)-2-((1-fluorocyclopropyl)methyl)-3-methyl-2,3,4,9-tetrahydro-1H-pyrido[3,4-b]indol-1-yl)-3-methoxyphenyl)-N2-(3-fluoropropyl)ethane-1,2-diamine]
16 | 3.4 | 0.24 nM | – | 24 µM (≈ 11.4 µg/mL) | 1.3 % free | – | COc1cc(NCCNCCCF)ccc1[C@@H]1c2[nH]c3ccccc3c2C[C@@H](C)N1CC(F)F [Example 61, N1-(4-((1R,3R)-2-(2,2-difluoroethyl)-3-methyl-2,3,4,9-tetrahydro-1H-pyrido[3,4-b]indol-1-yl)-3-methoxyphenyl)-N2-(3-fluoropropyl)ethane-1,2-diamine]
17 | 2.7 | – | – | 587 µM (≈ 287 µg/mL) | 13 % free | 3.9 nM | C[C@@H]1Cc2c([nH]c3ccccc23)[C@@H](c2cnc(OCCNCCCF)cc2F)N1CC1(F)COC1 [Example 62, 3-fluoro-N-(2-((4-fluoro-5-((1R,3R)-2-((3-fluorooxetan-3-yl)methyl)-3-methyl-2,3,4,9-tetrahydro-1H-pyrido[3,4-b]indol-1-yl)pyridin-2-yl)oxy)ethyl)propan-1-amine]
18 | 2 | 1 nM | – | > 1000 µM | 20 % free | – | COc1cc(NCCNCCCF)ncc1[C@@H]1c2[nH]c3ccccc3c2C[C@@H](C)N1CC1(F)COC1 [Example 66, N1-(5-((1R,3R)-2-((3-fluorooxetan-3-yl)methyl)-3-methyl-2,3,4,9-tetrahydro-1H-pyrido[3,4-b]indol-1-yl)-4-methoxypyridin-2-yl)-N2-(3-fluoropropyl)ethane-1,2-diamine]
19 | > 3.2 | 0.094 nM | – | 51 µM (≈ 25.2 µg/mL) | 0.66 % free | – | COc1cc(OCCNCCCF)ccc1[C@@H]1c2[nH]c3ccccc3c2C[C@@H](C)N1CC(F)(F)F [Example 73, 3-fluoro-N-(2-(3-methoxy-4-((1R,3R)-3-methyl-2-(2,2,2-trifluoroethyl)-2,3,4,9-tetrahydro-1H-pyrido[3,4-b]indol-1-yl)phenoxy)ethyl)propan-1-amine]
20 | 3.9 | 0.14 nM | – | 30 µM (≈ 14.7 µg/mL) | 0.33 % free | – | COc1cc(OCCNCCCF)ccc1[C@@H]1c2[nH]c3ccccc3c2C[C@@H](C)N1CC(C)(F)F [Example 74, N-(2-(4-((1R,3R)-2-(2,2-difluoropropyl)-3-methyl-2,3,4,9-tetrahydro-1H-pyrido[3,4-b]indol-1-yl)-3-methoxyphenoxy)ethyl)-3-fluoropropan-1-amine]
